In patent US9302999B2, “Substituted triazoles as herbicides” (E. I. DU PONT DE NEMOURS AND COMPANY, priority 2012, dated 2016):

System: smartweed (ladysthumb smartweed, Polygonum persicaria)
Assay: Test F pre-/postemergence: smartweed
Type: in vivo
From the text: Seeds of plant species selected from corn (Zea mays), soybean (Glycine max), velvetleaf (Abutilon theophrasti), lambsquarters (Chenopodium album), poinsettia, wild (wild poinsettia, Euphorbia heterophylla), pigweed, palmer (palmer pigweed, Amaranthus palmeri), waterhemp (common waterhemp, Amaranthus rudis), surinam grass (Brachiaria decumbens), crabgrass, Brazil (Brazilian crabgrass, Digitaria horizontalis), panicum, fall (fall panicum Panicum dichotomiflorum), crabgrass, large (large crabgrass, Digitaria sanguinalis), foxtail, giant (giant foxtail, Setaria faberii), foxtail, green (green foxtail Setaria viridis), goosegrass (Eleusine indica), ragweed (common ragweed, Ambrosia elatior), barnyardgrass (Echinochloa crus-galli), sandbur (southern sandbur, Cenchrus echinatus), arrowleaf sida (Sida rhombifolia), ryegrass, Italian (Italian ryegrass, Lolium multiflorum), dayflower, VA (Virginia (VA) dayflower, Commelina virginica), field bindweed (Convolvulus arvensis), cocklebur (common cocklebur, Xanthium strumarium), morningglory (Ipomoea coccinea), nightshade (eastern black nightshade, Solanum ptycanthum), kochia (Kochia scoparia), nutsedge, yellow (yellow nutsedge, Cyperus esculentus), johnsongrass (Sorghum halepense), smartweed (ladysthumb smartweed, Polygonum persicaria), and beggarticks (hairy beggarticks, Bidens pilosa), were planted into a silt loam soil and treated preemergence with test chemicals formulated in a non-phytotoxic solvent mixture which included a surfactant. At the same time, plants selected from these crop and weed species and also pigweed (Amaranthus retroflexus), waterhemp_RES1 (ALS/Triazine resistant common waterhemp, Amaranthus rudis) and waterhemp_RES2 (ALS/HPPD resistant common waterhemp, Amaranthus rudis) were planted in pots containing a planting medium comprising spaghnum peat moss, vermiculite, wetting agent and starter nutrients treated with postemergence applications of some of the test chemicals formulated in the same manner. Plants ranged in height from 2 to 18 cm for postemergence treatments (1- to 4-leaf stage).
Treated plants and controls were maintained in a greenhouse for 14 to 21 days, after which time all species were compared to controls and visually evaluated. Plant response ratings, summarized in Table E, are based on a scale of 0 to 100 where 0 is no effect and 100 is complete control. A dash (-) response means no test result.

[1] = Postemergence, 250 g ai/ha, scale 0 to 100
[2] = Postemergence, 31 g ai/ha, scale 0 to 100
[3] = Postemergence, 125 g ai/ha, scale 0 to 100
[4] = Preemergence, 16 g ai/ha, scale 0 to 100, 0 no effect, 100 complete control
[5] = Preemergence, 31 g ai/ha, scale 0 to 100, 0 no effect, 100 complete control
[6] = Preemergence, 125 g ai/ha, scale 0 to 100
[7] = Preemergence, 250 g ai/ha, scale 0 to 100

Row | SMILES | Plant response rating, Smartweed [1] | Plant response rating, Smartweed (Postemergence, 16 g ai/ha, scale 0 to 100) | Plant response rating, Smartweed [2] | Plant response rating, Smartweed (Postemergence, 62 g ai/ha, scale 0 to 100) | Plant response rating, Smartweed [3] | Plant response rating, Smartweed [4] | Plant response rating, Smartweed [5] | Plant response rating, Smartweed [6] | Plant response rating, Smartweed [7]
1 | CCc1nn(-c2ccc(C(F)(F)F)cc2)nc1Oc1ccnc(C(F)(F)F)c1 [Compound 169] | 35 | 10 | 10 | 15 | 25 | 0 | 0 | 40 | 95
2 | CCc1nn(-c2ccc(F)c(F)c2)nc1Oc1ccnc(C(F)(F)F)c1 [Compound 171] |  |  |  |  |  | 0 | 0 | 0 | 5
3 | CCCc1nn(-c2ccc(F)c(F)c2)nc1Oc1ccnc(C(F)(F)F)c1 [Compound 172] | 70 |  | 30 |  | 60 |  | 5 | 50 | 98
